Calls of active or inactive are those of the source. The calls are words filed in the database; no cut-off is given here.

The record followed here is ChEMBL document CHEMBL5576088, “Skin- and airway-deliverable TRPA1 inhibitor” (Bioorg Med Chem, 2024).

The target in assay [1] is T1, Transient receptor potential cation channel subfamily A member 1 (Homo sapiens, UniProt O75762). The assay can be described thus: Antagonist activity at wildtype human TRPA1 expressed in HEK293 cells assessed as inhibition of AITC-induced intracellular Ca2+ flux at 100 uM in presence of 5 uM AITC by Fluo4-AM dye based fluorescence analysis. The assay is classed as cell-based. Conditions: filed as antagonist. (In general: Calcium flux is commonly read through the fluorescence of an indicator in the cells.)

Assay [2] deals with T1, Transient receptor potential cation channel subfamily A member 1. Kind of assay: Antagonist activity at full length human TRPA1 expressed in HEK293 cells assessed as inhibition of AITC-induced intracellular Ca2+ flux in presence of 10 uM AITC by Fluo4-AM dye based fluorescence analysis. The assay is classed as cell-based.
A further assay concerns Homo sapiens. Kind of assay: Inhibition of methylparaben/phenoxyethanol-induced sensory irritation in human at 0.2% applied topically and measured for 8 mins. It is filed as functional, organism-based. Conditions: route top.
Assay [3] has as its target T1, Transient receptor potential cation channel subfamily A member 1. Kind of assay: Antagonist activity at human TRPA1 expressed in HEK293 cells assessed as inhibition of AITC-induced intracellular Ca2+ flux in presence of 5 uM AITC by Fluo4-AM dye based fluorescence analysis. The assay is classed as cell-based.
The target is the same in assay [4]. The assay can be described thus: Antagonist activity at human TRPA1 expressed in HEK293T cells assessed as inhibition of AITC-induced current by whole cell patch clamp analysis. The assay is classed as cell-based. On the technique in general: In patch-clamp work, channel activity is measured electrically.

T1 sequence (O75762 whole entry): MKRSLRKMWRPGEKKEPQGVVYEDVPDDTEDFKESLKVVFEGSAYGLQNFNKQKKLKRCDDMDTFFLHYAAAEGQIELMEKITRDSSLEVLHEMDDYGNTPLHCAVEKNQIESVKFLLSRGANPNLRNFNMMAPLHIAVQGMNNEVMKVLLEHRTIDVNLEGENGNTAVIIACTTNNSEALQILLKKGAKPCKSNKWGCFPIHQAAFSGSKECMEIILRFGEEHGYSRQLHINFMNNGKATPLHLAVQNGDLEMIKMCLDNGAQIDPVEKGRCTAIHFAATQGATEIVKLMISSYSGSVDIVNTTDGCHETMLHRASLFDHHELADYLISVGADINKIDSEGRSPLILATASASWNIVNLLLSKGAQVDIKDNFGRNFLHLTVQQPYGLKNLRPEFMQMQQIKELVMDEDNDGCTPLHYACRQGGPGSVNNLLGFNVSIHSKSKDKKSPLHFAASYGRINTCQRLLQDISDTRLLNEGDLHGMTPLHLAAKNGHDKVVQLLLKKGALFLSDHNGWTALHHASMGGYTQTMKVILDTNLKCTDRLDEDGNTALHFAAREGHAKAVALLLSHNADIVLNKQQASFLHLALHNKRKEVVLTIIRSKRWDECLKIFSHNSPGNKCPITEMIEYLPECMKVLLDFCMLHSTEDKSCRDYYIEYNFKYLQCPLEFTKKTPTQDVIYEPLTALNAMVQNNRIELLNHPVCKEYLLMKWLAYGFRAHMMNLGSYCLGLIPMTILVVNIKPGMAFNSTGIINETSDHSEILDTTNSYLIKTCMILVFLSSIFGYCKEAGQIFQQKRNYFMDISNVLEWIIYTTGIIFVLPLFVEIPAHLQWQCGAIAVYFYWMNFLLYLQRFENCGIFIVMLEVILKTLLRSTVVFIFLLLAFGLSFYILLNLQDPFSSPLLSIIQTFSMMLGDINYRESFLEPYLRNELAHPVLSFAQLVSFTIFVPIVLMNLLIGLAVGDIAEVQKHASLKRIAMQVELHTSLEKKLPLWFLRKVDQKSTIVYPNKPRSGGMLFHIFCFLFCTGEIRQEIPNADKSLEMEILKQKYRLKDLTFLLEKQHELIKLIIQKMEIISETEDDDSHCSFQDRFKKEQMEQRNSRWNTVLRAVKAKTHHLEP

The IC50 is the point on the concentration scale where inhibition reaches its midpoint. Take `CC(=C\c1ccc(Cl)cc1)/C(C)=N/O` [AP18 5]: the outcome in assay [1] was Active. Further, the IC50 in assay [2] is 1.72 µM.

Turning to `CC1(C)C2CCC1(C)C(O)C2` (racemic) [BORNEOL], the inhibition result with Homo sapiens is “inactive”. Moreover, the IC50 in assay [2] was 529 µM. In the case of `CCC(O)C(C)Cc1ccccc1` (mixture of isomers), the IC50 in assay [3] was determined as 21.8 µM.

In the case of `CC(CO)C(C)Cc1ccccc1` (mixture of isomers), in assay [3], the IC50 was determined as 17 µM.

Consider `CC(C)c1ccc(NC(=O)Cn2cnc3c2c(=O)n(C)c(=O)n3C)cc1`, for which, in assay [1], the result was Active.

Regarding `C/C(=C\C(C)c1ccccc1)CO` (racemic), the IC50 in assay [3] came to 32.1 µM. In the case of `CC1(C)[C@@H]2CC[C@@]1(C)[C@](C)(O)C2`, the IC50 in assay [4] is 120 µM.

Take `CC(CCO)CC(C)c1ccccc1` (mixture of isomers): the IC50 in assay [3] is 19.8 µM.
